Data reported in paper PMC6726485 (Nature, 2019).

Key:
[1] = target: T1, mitoKATP (endogenous, HeLa mitochondria) (Homo sapiens, UniProt Q9NUT2); experiment: mitochondrial swelling; assay type: biochemical; settings: KCl swelling buffer, 1 mM MgCl2, 1 uM oligomycin, pH 7.2
T1 sequence (Q9NUT2 26-735): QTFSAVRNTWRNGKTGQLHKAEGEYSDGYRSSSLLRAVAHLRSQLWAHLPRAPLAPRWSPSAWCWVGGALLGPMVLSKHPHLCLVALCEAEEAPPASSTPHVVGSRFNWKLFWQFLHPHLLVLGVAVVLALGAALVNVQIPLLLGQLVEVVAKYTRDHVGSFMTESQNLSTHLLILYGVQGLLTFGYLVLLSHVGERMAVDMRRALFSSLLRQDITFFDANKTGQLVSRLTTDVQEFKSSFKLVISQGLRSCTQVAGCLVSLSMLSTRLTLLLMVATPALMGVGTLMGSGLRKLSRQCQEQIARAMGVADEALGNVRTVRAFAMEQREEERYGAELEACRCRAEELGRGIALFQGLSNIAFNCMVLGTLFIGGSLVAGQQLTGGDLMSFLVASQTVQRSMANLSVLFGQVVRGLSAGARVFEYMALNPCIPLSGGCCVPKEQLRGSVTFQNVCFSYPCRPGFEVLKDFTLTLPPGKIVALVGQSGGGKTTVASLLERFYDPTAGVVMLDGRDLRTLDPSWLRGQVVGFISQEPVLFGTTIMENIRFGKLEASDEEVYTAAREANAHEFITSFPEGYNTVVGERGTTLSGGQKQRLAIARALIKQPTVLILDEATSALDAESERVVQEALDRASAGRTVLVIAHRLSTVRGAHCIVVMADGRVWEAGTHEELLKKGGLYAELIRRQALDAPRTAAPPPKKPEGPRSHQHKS
T1 sequence (Q96ER9 36-411 partner): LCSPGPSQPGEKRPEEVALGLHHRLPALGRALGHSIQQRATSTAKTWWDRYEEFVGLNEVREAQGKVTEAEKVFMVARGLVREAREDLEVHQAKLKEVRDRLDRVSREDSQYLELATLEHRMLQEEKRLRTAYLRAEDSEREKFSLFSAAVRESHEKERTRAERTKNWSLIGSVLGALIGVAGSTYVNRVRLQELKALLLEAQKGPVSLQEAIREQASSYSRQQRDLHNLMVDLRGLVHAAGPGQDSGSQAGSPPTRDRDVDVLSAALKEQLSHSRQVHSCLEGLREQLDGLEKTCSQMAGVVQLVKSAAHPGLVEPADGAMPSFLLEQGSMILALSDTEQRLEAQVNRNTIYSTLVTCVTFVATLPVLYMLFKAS

[2] = target: T2, mitoKATP (endogenous, mouse liver mitochondria) (Mus musculus, UniProt Q9CXJ4); experiment: […]+ uptake, isolated liver mitochondria; assay type: biochemical; settings: 1 mM MgCl2, 1 uM oligomycin, pH 7.2
T2 sequence (Q9CXJ4 26-717): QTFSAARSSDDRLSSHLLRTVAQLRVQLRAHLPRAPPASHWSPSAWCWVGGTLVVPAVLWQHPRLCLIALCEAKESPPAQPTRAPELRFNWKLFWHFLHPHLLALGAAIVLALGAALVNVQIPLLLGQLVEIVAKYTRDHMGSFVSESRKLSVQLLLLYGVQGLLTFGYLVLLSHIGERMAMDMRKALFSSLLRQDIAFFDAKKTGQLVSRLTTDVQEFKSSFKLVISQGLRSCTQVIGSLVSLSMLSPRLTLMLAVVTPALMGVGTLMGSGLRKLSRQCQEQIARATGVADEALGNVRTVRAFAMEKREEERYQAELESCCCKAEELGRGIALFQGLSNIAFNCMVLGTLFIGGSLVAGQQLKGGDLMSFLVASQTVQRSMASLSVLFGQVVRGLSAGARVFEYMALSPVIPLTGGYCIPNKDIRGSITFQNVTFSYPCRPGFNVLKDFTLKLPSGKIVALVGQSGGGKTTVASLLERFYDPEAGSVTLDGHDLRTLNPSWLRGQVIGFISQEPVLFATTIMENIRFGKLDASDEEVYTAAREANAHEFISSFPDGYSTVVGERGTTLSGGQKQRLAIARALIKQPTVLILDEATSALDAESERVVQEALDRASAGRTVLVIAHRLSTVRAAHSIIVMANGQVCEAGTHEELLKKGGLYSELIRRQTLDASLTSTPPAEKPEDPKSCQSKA
T2 sequence (Q3URS9 36-406 partner): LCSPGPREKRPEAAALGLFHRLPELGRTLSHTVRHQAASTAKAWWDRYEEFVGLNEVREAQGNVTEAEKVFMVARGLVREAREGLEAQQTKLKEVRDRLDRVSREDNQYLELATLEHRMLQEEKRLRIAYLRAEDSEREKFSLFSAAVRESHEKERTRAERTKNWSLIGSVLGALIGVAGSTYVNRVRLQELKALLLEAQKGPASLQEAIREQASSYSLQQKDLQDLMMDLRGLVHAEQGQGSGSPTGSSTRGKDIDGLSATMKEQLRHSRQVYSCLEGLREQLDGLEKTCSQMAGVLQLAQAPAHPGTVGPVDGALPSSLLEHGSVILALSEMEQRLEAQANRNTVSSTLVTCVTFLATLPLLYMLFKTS

In the case of `Nc1ncnc2c1ncn2[C@@H]1O[C@H](COP(=O)(O)OP(=O)(O)OP(=O)(O)O)[C@@H](O)[C@H]1O` [ATP], the “mitochondrial swelling (A520), isolated HeLa mitochondria” value ([1]; inhibitor) is reported as “ATP decreases and diazoxide increases the swelling rates” and the “86Rb+ uptake, isolated liver mitochondria” value ([2]; inhibitor, 2 mM ATP) is reported as “neither ATP nor diazoxide were able to alter K^+ fluxes when Mitok was absent”.
For `CC1=NS(=O)(=O)c2cc(Cl)ccc2N1` [diazoxide], the “mitochondrial swelling (A520), isolated HeLa mitochondria” value ([1]; activator) was “ATP decreases and diazoxide increases the swelling rates” and the “86Rb+ uptake, isolated liver mitochondria” value ([2]; activator, 50 uM diazoxide) was “neither ATP nor diazoxide were able to alter K^+ fluxes when Mitok was absent”.
